Assay results taken from the RepoRT retention time repository.
Structures can show the parent of a compound that is named as a salt.

Assay: RP, Restek Raptor Biphenyl, 100 × 2.1 mm, 2.7 µm, 50 °C, 0.4 mL/min, estimated dead time 0.55 min; A: water + 0.1% formic acid, pH 3; B: methanol + 0.1% formic acid, pH 3; gradient (min/%B) 0/5 1.12/5 6.41/99.5 10.01/99.5
Settings: stereoisomer not certain

Row | SMILES | LC retention time
1 | Cc1cn(C2CC(O)C(COP(=O)(O)OP(=O)(O)OC3OC(CO)C(O)C(O)C3O)O2)c(=O)[nH]c1=O [DTDP-D-GLUCOSE] | 0.702 min
2 | Cc1ncc(CO)c(C(=O)O)c1O [4-PYRIDOXATE] | 1.8 min
3 | O=C(O)CCCCCCCC(O)C(O)CCCCCCO (stereo unspecified) [Aleuritic acid] | 4.92 min
4 | CCCCCCCCCCCCCCCC[n+]1cccc(S(=O)(=O)[O-])c1 [C16-APS] | 6.34 min
5 | CC(C)C(=O)C(=O)O [α-Keto Isovaleric Acid Sodium Salt] | 1.26 min
6 | CC1(C(=O)Nc2ccc(O)c(Cl)c2Cl)CCCCC1 [Fenhexamid] | 5.83 min
7 | O=C(O)CC(O)(CC(=O)O)C(=O)O [Citric acid] | 0.743 min
8 | Nc1nc2ncc(CNc3ccc(C(=O)NC(CCC(=O)O)C(=O)O)cc3)nc2c(=O)[nH]1 (stereo unspecified) [FOLATE] | 3.67 min
9 | CCCCCCCCCCCC[n+]1cccc(S(=O)(=O)[O-])c1 [C12-APS] | 5.79 min
10 | CCC(Oc1ccc(F)c(C(F)(F)F)c1)C(=O)NCc1ccccc1 (stereo unspecified) [Beflubutamid] | 5.9 min
11 | CCCCCC[n+]1cccc(S(=O)(=O)[O-])c1 [C6-APS] | 3.92 min
12 | O=c1[nH]c(=O)c2[nH]cnc2[nH]1 [XANTHINE] | 0.933 min
13 | CC(C)=CC(=O)NCC(=O)O [3-Methylcrotonyl Glycine] | 2.95 min
14 | CC(CCC(=O)O)C1CCC2C3C(=O)CC4CC(O)CCC4(C)C3CCC12C (stereo unspecified) [Nutriacholic Acid] | 6.42 min
15 | CCCCCCCCCCCCCCCCC(=O)O [Heptadecanoic acid] | 6.6 min
16 | CCCCCCCCCCCCCCCCCCCC(=O)O [Arachidic acid] | 6.68 min
17 | O=c1cccc(O)[nH]1 [2,6-DIHYDROXYPYRIDINE] | 3.3 min
18 | O=C(O)Cc1c[nH]c2ccccc12 [3-Indoleacetic acid] | 4.19 min
19 | O=C(O)Cc1ccc(O)cc1 [4-Hydroxyphenylacetic acid] | 3.02 min
20 | CC(=O)NCCc1c[nH]c2ccc(O)cc12 [N-ACETYLSEROTONIN] | 3.58 min
21 | CCCCCCCCCC[n+]1cccc(S(=O)(=O)[O-])c1 [C10-APS] | 5.39 min
22 | CC(CCC(=O)NCC(=O)O)C1CCC2C3CCC4CC(O)CCC4(C)C3CC(O)C12C (stereo unspecified) [Glycodeoxycholic acid] | 6.16 min

Row | SMILES | LC retention time
23 | CCCCCCCCCCCCCCCCCCC(=O)O [Nonadecanoic acid] | 6.72 min
24 | O=C1CCCCO1 [5-VALEROLACTONE] | 2.44 min
25 | O=C(O)CCCc1c[nH]c2ccccc12 [Indole-3-butyric acid] | 4.97 min
26 | c1ncc2[nH]cnc2n1 [PURINE] | 1.29 min
27 | CN(C)C(=O)Nc1cccc(C(F)(F)F)c1 [Fluometuron] | 4.92 min
28 | CCC=CCC=CCC=CCCCCCCCC(=O)O [Linolenic acid] | 6.53 min
29 | CC(CCC(=O)NCCS(=O)(=O)O)C1CCC2C3CCC4CC(O)CCC4(C)C3CC(O)C12C (stereo unspecified) [Taurodeoxycholic acid] | 6.16 min
30 | Cc1cn(C2CC(O)C(CO)O2)c(=O)[nH]c1=O (stereo unspecified) [THYMIDINE] | 2.18 min
31 | O=C(O)[C@H](O)Cc1ccccc1 [D-(+)-3-Phenyllactic acid] | 3.79 min
32 | O=C(O)CCCCC(O)CC(=O)O (stereo unspecified) [3-Hydroxysuberic Acid] | 2.74 min
33 | COc1cc(C(O)C(=O)O)ccc1O (racemic) [DL-4-Hydroxy-3-methoxymandelic acid] | 1.73 min
34 | CNC(=O)c1cc(Cl)cc(C)c1NC(=O)c1cc(Br)nn1-c1ncccc1Cl [Chlorantraniliprole] | 5.84 min
35 | CC(=O)C1CCC2C3CC=C4CC(OS(=O)(=O)O)CCC4(C)C3CCC12C (stereo unspecified) [PREGNENOLONE SULFATE] | 6.51 min
36 | CC(C)(CC(=O)O)CC(=O)O [3,3-Dimethylglutaric acid] | 3.16 min
37 | Nc1nc2c(ncn2C2OC(CO)C(O)C2O)c(=O)[nH]1 (stereo unspecified) [GUANOSINE] | 1.15 min
38 | CCCCCCCCCCCCCCCCCCCCCC(=O)O [Behenic acid] | 6.86 min
39 | CCCCC[n+]1cccc(S(=O)(=O)[O-])c1 [C5-APS] | 3.33 min
40 | CC(C)(C)C(O)C(=Cc1ccc(Cl)cc1Cl)n1cncn1 (stereo unspecified) [Diniconazole] | 6.05 min
41 | CC(C)C(O)(CC(=O)O)C(=O)O (stereo unspecified) [2-Isopropylmalic acid] | 2.76 min
42 | Cc1cc2nc3c(=O)[nH]c(=O)nc-3n(CC(O)C(O)C(O)CO)c2cc1C (stereo unspecified) [RIBOFLAVIN] | 4.45 min
43 | CCCCCCCCCCCCCCCCCCCCCCCCC(=O)O [Pentacosanoic Acid] | 6.98 min
44 | CC1NC(=O)NC1CCCCCC(=O)O (stereo unspecified) [DETHIOBIOTIN] | 4.21 min

Row | SMILES | LC retention time
45 | COC(=O)c1c(Cl)nn(C)c1S(=O)(=O)NC(=O)Nc1nc(OC)cc(OC)n1 [Halosulfuron-methyl] | 6.42 min
46 | NC(Cc1c[nH]c2ccccc12)C(=O)O (stereo unspecified) [TRYPTOPHAN] | 2.53 min
47 | C#CC(C)(C)NC(=O)c1cc(Cl)cc(Cl)c1 [Propyzamide] | 5.6 min
48 | Cc1nn(-c2cc(NS(C)(=O)=O)c(Cl)cc2Cl)c(=O)n1C(F)F [Sulfentrazone] | 5.29 min
49 | O=C(O)CCCC(=O)C(=O)O [2-Oxoadipic acid] | 0.793 min
50 | CC(C)CCCCCCCCCCCCC(=O)O [Isopalmitic acid] | 6.54 min
51 | O=C(O)CCCCCCCC(=O)O [Azelaic acid] | 4.48 min
52 | CC[n+]1cccc(S(=O)(=O)[O-])c1 [C2-APS] | 0.835 min
53 | CCCCCCCCC=CCCCCCCCCCCCCCC(=O)O [Nervonic acid] | 6.93 min
54 | CC(CCC(=O)NCCS(=O)(=O)O)C1CCC2C3CCC4CC(O)CCC4(C)C3CCC12C (stereo unspecified) [Taurolithocholic acid] | 6.47 min
55 | N[C@@H](Cc1cc(I)c(O)c(I)c1)C(=O)O [3,5-DIIODO-L-TYROSINE] | 3.59 min
56 | Cc1cc(C(F)(C(F)(F)F)C(F)(F)F)ccc1NC(=O)c1cccc(I)c1C(=O)NC(C)(C)CS(C)(=O)=O [Flubendiamide] | 5.97 min
57 | O=C(Nc1ccccc1)Nc1ccnc(Cl)c1 [Forchlorfenuron] | 5.17 min
58 | COc1cc(CC(O)C(=O)O)ccc1O (racemic) [DL-Vanillactic acid lithium salt hydrate] | 3.04 min
59 | Cc1ncc2c(c1O)C(=O)OC2 [4-Pyridoxolactone] | 2.25 min
60 | OC(c1ccc(Cl)cc1)(c1cncnc1)c1ccccc1Cl (stereo unspecified) [Fenarimol] | 6.02 min
61 | Cc1ccn2nc(S(=O)(=O)Nc3c(F)cccc3F)nc2n1 [Flumetsulam] | 4.92 min
62 | NC(=O)Cc1c[nH]c2ccccc12 [INDOLE-3-ACETAMIDE] | 3.75 min
63 | O=C(O)CCCCCCCCCO [10-HYDROXYDECANOATE] | 4.92 min
64 | NC(=O)C1CCCN1C(=O)C(Cc1cnc[nH]1)NC(=O)C1CCC(=O)N1 (stereo unspecified) [THYROTROPIN RELEASING HORMONE] | 1.99 min
65 | CCCCCCCCCCCCC[n+]1cccc(S(=O)(=O)[O-])c1 [C13-APS] | 5.95 min
66 | O=c1[nH]c(=O)c2ncn(C3OC(COP(=O)(O)O)C(O)C3O)c2[nH]1 (stereo unspecified) [XANTHOSINE-MONOPHOSPHATE] | 0.695 min
